Experimental data taken from patent US9012365B2, “Compatibility agents for herbicidal formulations comprising 2,4-(Dichlorophenoxy) acetic acid salts” (priority 2006, dated 2015).
Each block holds one compound with its values, some of them ahead of it.

Columns and labels:
Format in all cases: physicochemical
[1] = System appearance and pH after adding chemicals into System A
Text: System appearance after adding various chemicals into “System A” which was 100 g of 3% 2,4-D DMA (50%)+90% water (1000 ppm)+7% Ammonium sulfate (40%).

[2] = Appearance of 10 g solution of (2.5 wt % ai 2,4-D DMA + tested chemical) after adding 40% AMS; conditions: for 0 gram Appearance / Addition Weight of 40% AMS: System was cloud after adding / Addition Weight of 40% AMS: System was clear after adding: 2.5 wt % ai 2,4-D DMA; for Addition Weight of 40% AMS: System was cloud after adding / Addition Weight of 40% AMS: System was clear after adding: 10 g solution; for Appearance, added 40% AMS wt into 10 g (2.5% 2,4-D + 0.13% tested chemical in DI water): at 0 g AMS added, or at all additions (All); for Added 40% AMS wt into 10 g (2.5% 2,4-D + 0.13% tested chemical in DI water), hazy / Added 40% AMS wt into 10 g (2.5% 2,4-D + 0.13% tested chemical in DI water), still clear: Table of Example 1
Description: In this example, the appearance of a 10 g solution of (2.5 wt % ai 2,4-D DMA+tested chemical) was evaluated after adding 40% AMS

[3] = as above; conditions: summary statement of the description
[4] = Solubility of tested chemical in DI water
Description: (§1) In example 1, the electrolyte tolerance of 6 chemicals with and without the presence of 2,4-D amine was evaluated in ammonium sulfate system.

[5] = Solubility of tested chemical in 40% AMS (ammonium sulfate)
Description: as §1

[6] = Electrolyte tolerance: 40% AMS added into 10 g 0.13% tested chemical in DI water; conditions: for Appearance, added 40% AMS wt into 10 g 0.13% tested chemical in DI water: at 0 g AMS added, or at all additions (All); for Solubility / compatibility in water or AMS solution (in words): without 2,4-D amine; for Added 40% AMS wt into 10 g 0.13% tested chemical in DI water, hazy / Added 40% AMS wt into 10 g 0.13% tested chemical in DI water, still clear: no 2,4-D
Description: as §1

[7] = Crystal formation of 2,4-D in 1000 ppm hard water + AMS after post-adding surfactant; conditions: for Appearance of sample: 0.069 g surfactant added to 3% 2,4-DMA (50%) + 90% water (1000 ppm hardness) + 7% AMS (40%), room temperature
Text: FIG. 3 is a photograph illustrating the effect of various concentrations of cocoamine-2EO (“Coco-2”) and/or tallow-10EO (“Tallow-10”) on crystal formation of 2,4-D. (A) 0% Coco-2/0% Tallow-10. (B) 100% Coco-2/0% Tallow-10. (C) 45% Coco-2/55% Tallow-10. (D) 50% Coco-2/50% Tallow-10. (E) 55% Coco-2/45% Tallow-10.(F) 60% Coco-2/40% Tallow-10. (G) 0% Coco-2/100% Tallow-10.
In FIG. 3, sample (0:0) was 3% 2,4-DMA (50%)+90% water (1000 ppm hardness)+7% AMS (40%) and it readily formed crystals at room temperature.
The first sample, (0:0), on the left had no surfactant and it had about 15% crystal at the bottom. The rest of the samples had 0.069 g surfactant post-added to the first sample. […] Sample (0:100) was a little hazy with ˜5% crystal at bottom.

[8] = Compatibility of 2,4-D DMA premix with 28% N fertilizer (phase diagram, coarse particle formation)
Description: FIG. 2 is a photograph illustrating the effect of cocoamine-2EO methylchloride on coarse particle formation of 2,4-D ammonium salt. (A) 90% 28% N; 1% 2,4-D DMA; and 9% DI water. (B) 90% 28% N; 1% 2,4-D DMA; 5.5% DI water; and 3.5% Coco 2EO quat.
However, if 10% pre-mixed (8:2 water: 2,4-D DMA-50% ai) is added to 90% 28% N, a hazy system with coarse particles (2,4-D NH4 salt) will form in a few minutes at room temperature.

[9] = added into 100 g System A, added wt 0.815 g Ethoquad, 0.079 g NH4OH, 0.091 g dimethylamine, 1.07 g NaOH
[10] = added wt 1.35 grams into 100 g System A
[11] = 0.13 wt % a.i. of tested chemical, 0 gram 40% AMS
[12] = 0.13 wt % a.i. of tested chemical
[13] = 1.25 wt % a.i. of tested chemical

Compound: [Na+].[OH-] [10% NaOH, NaOH]
Appearance [1, 9]: clear
pH [1, 9]: 6
Appearance [1, 10]: crystals re-appeared
pH [1, 10]: 10

Compound: CNC [Dimethylamine 40%, Dimethylamine]
Appearance [1, 9]: slightly hazy
pH [1, 9]: 7.8

Compound: CN1CCCC1=O [Methyl-2-pyrrolidinone]
0 gram Appearance [2, 11]: Clear
Addition Weight of 40% AMS: System was clear after adding [2, 12]: 0.36 grams
Addition Weight of 40% AMS: System was cloud after adding [2, 12]: 0.567 grams
Suitability for increasing the solubility of 2,4-D non-amine salt (in words) [3]: ineffective

Compound: N.O [NH4OH 28-30%, NH4OH]
Appearance [1, 9]: hazy
pH [1, 9]: 8

Compound: CCCCC(CC)COC(=O)CC(C(=O)OCC(CC)CCCC)S(=O)(=O)[O-].[Na+] (stereo not shown) [Sodium dioctyl sulfonsuccinate]
0 gram Appearance [2, 11]: very cloudy
Addition Weight of 40% AMS: System was clear after adding [2, 12]: very cloudy
Addition Weight of 40% AMS: System was cloud after adding [2, 12]: 0 grams
Suitability for increasing the solubility of 2,4-D non-amine salt (in words) [3]: ineffective

Compound: Castor oil ethoxylate-10EO
Solubility of tested chemical in DI Water [4]: <0.007%
Solubility of testes chemical in 40% AMS [5]: <0.007%
Appearance, added 40% AMS wt into 10 g 0.13% tested chemical in DI water [6]: All hazy
Solubility / compatibility in water or AMS solution (in words) [6]: little compatibility
0 gram Appearance [2, 11]: Haze
Addition Weight of 40% AMS: System was clear after adding [2, 12]: Haze
Addition Weight of 40% AMS: System was cloud after adding [2, 12]: 0 grams
Appearance, added 40% AMS wt into 10 g (2.5% 2,4-D + 0.13% tested chemical in DI water) [2]: All hazy

Compound: Castor oil ethoxylate-36EO
Solubility of tested chemical in DI Water [4]: >20%
Solubility of testes chemical in 40% AMS [5]: <0.036%
Appearance, added 40% AMS wt into 10 g 0.13% tested chemical in DI water [6]: clear
Added 40% AMS wt into 10 g 0.13% tested chemical in DI water, hazy [6]: 3.74 hazy g
Added 40% AMS wt into 10 g 0.13% tested chemical in DI water, still clear [6]: 3.57 g
0 gram Appearance [2, 11]: Clear
Addition Weight of 40% AMS: System was clear after adding [2, 12]: 1.726 grams
Addition Weight of 40% AMS: System was cloud after adding [2, 12]: 2.141 grams
Added 40% AMS wt into 10 g (2.5% 2,4-D + 0.13% tested chemical in DI water), hazy [2]: 2.14 g
Added 40% AMS wt into 10 g (2.5% 2,4-D + 0.13% tested chemical in DI water), still clear [2]: 1.73 g
Appearance, added 40% AMS wt into 10 g (2.5% 2,4-D + 0.13% tested chemical in DI water) [2]: clear
AMS electrolyte tolerated relative to 55EO castor oil ethoxylate ([2]; in 2.5% 2,4-D DMA solution): 3 times

Compound: Cocoamine-2EO
Solubility of tested chemical in DI Water [4]: <0.016%
Solubility of testes chemical in 40% AMS [5]: <0.016%
Appearance, added 40% AMS wt into 10 g 0.13% tested chemical in DI water [6]: All hazy
Solubility / compatibility in water or AMS solution (in words) [6]: little compatibility
Compatibility in 2,4-D amine and AMS solution (in words) [2]: very good compatibility
0 gram Appearance [2, 11]: Clear
Addition Weight of 40% AMS: System was clear after adding [2, 12]: 2.096 grams
Addition Weight of 40% AMS: System was cloud after adding [2, 12]: 2.264 grams
Added 40% AMS wt into 10 g (2.5% 2,4-D + 0.13% tested chemical in DI water), hazy [2]: 2.26 g
Added 40% AMS wt into 10 g (2.5% 2,4-D + 0.13% tested chemical in DI water), still clear [2]: 2.1 g
Appearance, added 40% AMS wt into 10 g (2.5% 2,4-D + 0.13% tested chemical in DI water) [2]: clear
Appearance of sample [7]: hazy product without crystals
Appearance of sample ([7]; listed as Sample (100:0)): hazy sample with a little oily sediment at bottom

Compound: Hexyl glycoside
Solubility of tested chemical in DI Water [4]: All clear
Solubility of testes chemical in 40% AMS [5]: All clear
Appearance, added 40% AMS wt into 10 g 0.13% tested chemical in DI water [6]: All clear
Solubility / compatibility in water or AMS solution (in words) [6]: excellent solubility in water and electrolyte tolerance
Compatibility in 2,4-D amine and AMS solution (in words) [2]: poor compatibility agent
0 gram Appearance [2, 11]: Clear
Addition Weight of 40% AMS: System was clear after adding [2, 12]: 0.179 grams
Addition Weight of 40% AMS: System was cloud after adding [2, 12]: 0.359 grams
Added 40% AMS wt into 10 g (2.5% 2,4-D + 0.13% tested chemical in DI water), hazy [2]: 0.36 g hazy
Added 40% AMS wt into 10 g (2.5% 2,4-D + 0.13% tested chemical in DI water), still clear [2]: 0.18 g
Appearance, added 40% AMS wt into 10 g (2.5% 2,4-D + 0.13% tested chemical in DI water) [2]: clear

Compound: Tallowamine-10EO
0 gram Appearance [2, 11]: Clear
Addition Weight of 40% AMS: System was clear after adding [2, 12]: 1.503 grams
Addition Weight of 40% AMS: System was cloud after adding [2, 12]: 1.717 grams
Appearance of sample [7]: dissolved most crystals
Appearance of sample ([7]; listed as Sample (0:100)): a little hazy
Crystal at bottom ([7]; 0.069 g surfactant post-added to sample (0:0)): ~5%

Compound: Trideceth-10
0 gram Appearance [2, 11]: Clear
Addition Weight of 40% AMS: System was clear after adding [2, 12]: 0.557 grams
Addition Weight of 40% AMS: System was cloud after adding [2, 12]: 0.685 grams

Compound: Triethyl ammonium phosphate
0 gram Appearance [2, 13]: Clear
Addition Weight of 40% AMS: System was clear after adding [2, 13]: 0.303 grams
Addition Weight of 40% AMS: System was cloud after adding [2, 13]: 0.535 grams

Compound: Tristyrylphenol + 16EO
0 gram Appearance [2, 11]: Clear
Addition Weight of 40% AMS: System was clear after adding [2, 12]: 1.084 grams
Addition Weight of 40% AMS: System was cloud after adding [2, 12]: 2.235 grams

Compound: ethoxylated (2EO) cocoamide oxides
Suitability for increasing the solubility of 2,4-D non-amine salt (in words) [3]: ineffective

More lines, main results first:

0 gram Appearance [2, 11]: Clear
Addition Weight of 40% AMS: System was cloud after adding [2, 12]: 0.461 grams
Suitability for increasing the solubility of 2,4-D non-amine salt (in words) [3]: ineffective
Compound: CC(C)O [Isopropyl alcohol]

Suitability for increasing the solubility of 2,4-D non-amine salt (in words) [3]: ineffective
Compound: CCCCCCCCO [octanol]

Solubility of tested chemical in DI Water [4]: >20%
0 gram Appearance [2, 11]: Clear
Addition Weight of 40% AMS: System was clear after adding [2, 12]: 0.476 grams
Addition Weight of 40% AMS: System was cloud after adding [2, 12]: 0.554 grams
Added 40% AMS wt into 10 g (2.5% 2,4-D + 0.13% tested chemical in DI water), hazy [2]: 0.55 g
Added 40% AMS wt into 10 g (2.5% 2,4-D + 0.13% tested chemical in DI water), still clear [2]: 0.48 g
Appearance, added 40% AMS wt into 10 g (2.5% 2,4-D + 0.13% tested chemical in DI water) [2]: clear
Compound: Castor oil ethoxylate-55EO
Appearance, added 40% AMS wt into 10 g 0.13% tested chemical in DI water [6]: clear
Added 40% AMS wt into 10 g 0.13% tested chemical in DI water, hazy [6]: 3.74 hazy g
Added 40% AMS wt into 10 g 0.13% tested chemical in DI water, still clear [6]: 3.63 g

Solubility of tested chemical in DI Water [4]: All clear
Solubility of testes chemical in 40% AMS [5]: All clear
Compatibility in 2,4-D amine and AMS solution (in words) [2]: very good compatibility agent
0 gram Appearance [2, 11]: Clear
Addition Weight of 40% AMS: System was clear after adding [2, 12]: 2.21 grams
Addition Weight of 40% AMS: System was cloud after adding [2, 12]: 2.511 grams
Added 40% AMS wt into 10 g (2.5% 2,4-D + 0.13% tested chemical in DI water), hazy [2]: 2.51 g hazy
Added 40% AMS wt into 10 g (2.5% 2,4-D + 0.13% tested chemical in DI water), still clear [2]: 2.21 g
Appearance, added 40% AMS wt into 10 g (2.5% 2,4-D + 0.13% tested chemical in DI water) [2]: clear
Spray solution obtained ([8]; 10% pre-mixed (8:2 Ethoquad C/12W-43.7%: 2,4-D DMA-50% ai) added to 90% 28% N): non-nozzle plugging spray solution
pH change of System A (in words) [1]: only changed slightly
Appearance [1, 9]: clear
pH [1, 9]: 5.2
Compound: Cocoamine-2EO methylchloride
Appearance, added 40% AMS wt into 10 g 0.13% tested chemical in DI water [6]: All clear
Solubility / compatibility in water or AMS solution (in words) [6]: excellent solubility in water and electrolyte tolerance
Effect on formation of coarse particles of the 2,4-D ammonium salt ([8]; 28% N fertilizer, room temperature, FIG. 2): prevent or minimize the formation of coarse particles

0 gram Appearance [2, 11]: Clear
Addition Weight of 40% AMS: System was clear after adding [2, 12]: 0.458 grams
Addition Weight of 40% AMS: System was cloud after adding [2, 12]: 0.684 grams
Compound: Trideceth-8

0 gram Appearance [2, 11]: Clear
Addition Weight of 40% AMS: System was clear after adding [2, 12]: 0.581 grams
Addition Weight of 40% AMS: System was cloud after adding [2, 12]: 0.688 grams
Compound: Trideceth-12

0 gram Appearance [2, 11]: Clear
Addition Weight of 40% AMS: System was clear after adding [2, 12]: 2.102 grams
Addition Weight of 40% AMS: System was cloud after adding [2, 12]: 2.509 grams
Compound: Tristyrylphenol + 15EO
